The structures appear in SMILES notation.

The text below walks through data of US20240124418A1 (BioTheryX, Inc., priority 2020, published 2024).

The test system of this experiment is TNF-α. The experiment is described as follows: Cell-based TNF-α inhibition assay (LPS-induced PBMCs, Meso Scale). Particulars: PBMC, PBMCs pretreated 1 h, LPS 100 ng/mL 18-24 h, percentage of stimulated DMSO control; for inhibition at 0.1 µM: compound concentration 0.1 μM; for inhibition at 1 µM: compound concentration 1 μM. The method, then:
Example B1. Cell-Based TNF-α Inhibition Assay
Frozen primary blood mononuclear cells (PBMCs) were quick thawed, washed once with RPMI 1640 media supplemented with 10% fetal bovine serum, 1% penicillin, and 1% streptomycin, and plated in a 96 well plate at 200,000 cells per well. The cells were pretreated with DMSO only as a control or a compound for 1 h, and then induced with LPS (lipopolysaccharide) (100 ng/mL) for 18-24 h. The supernatant was analyzed for TNF-α using the Meso Scale assay. Compound activity was determined as a percentage of the stimulated DMSO control. The results are summarized in Table 1, where A represents a percent inhibition value ≥60%; B represents a percent inhibition value <60% and ≥40%; C represents a percent inhibition value <40% and ≥20%; and D represents a single percent inhibition value <20%.

As for `CCOc1cc([C@@H](CS(C)(=O)=O)N2C(=O)c3cccc(NC(=O)CCCCCCCCn4cc(-c5cc6c(cc5F)C(=O)N(C5CCC(=O)NC5=O)C6)nn4)c3C2=O)ccc1OC` (stereo partly drawn) [Compound A23, 9-{4-[2-(2,6-Dioxopiperidin-3-yl)-6-fluoro-1-oxo-2,3-dihydro-1H-isoindol-5-yl]-1H-1,2,3-triazol-1-yl}-N-{2-[(1S)-1-(3-ethoxy-4-methoxyphenyl)-2-methanesulfonylethyl]-1,3-dioxo-2,3-dihydro-1H-isoindol-4-yl}nonanamide], the inhibition (commonly the change of the read-out against control, counted positive when it falls) at 0.1 µM is ≥ 60% and the inhibition at 1 µM was ≥ 60%.

Consider `CCOc1cc([C@@H](CS(C)(=O)=O)N2C(=O)c3cccc(NC(=O)CCCCCCCN4CCN(CC(=O)Nc5cccc(C6CCC(=O)NC6=O)c5)CC4)c3C2=O)ccc1OC` (stereo partly drawn) [Compound A85, 8-[4-({[3-(2,6-Dioxopiperidin-3-yl)phenyl]carbamoyl}methyl)piperazin-1-yl]-N-{2-[(1S)-1-(3-ethoxy-4-methoxyphenyl)-2-methanesulfonylethyl]-1,3-dioxo-2,3-dihydro-1H-isoindol-4-yl}octanamide], for which the inhibition at 0.1 µM was ≥ 60% and the inhibition at 1 µM was ≥ 60%.

Regarding `CCOc1cc([C@@H](CS(C)(=O)=O)N2C(=O)c3cccc(NC(=O)CCCCCCCCCN4CCN(CC(=O)Nc5cccc(C6CCC(=O)NC6=O)c5)CC4)c3C2=O)ccc1OC` (stereo partly drawn) [Compound A88, 10-[4-({[3-(2,6-Dioxopiperidin-3-yl)phenyl]carbamoyl}methyl)piperazin-1-yl]-N-{2-[(1S)-1-(3-ethoxy-4-methoxyphenyl)-2-methanesulfonylethyl]-1,3-dioxo-2,3-dihydro-1H-isoindol-4-yl}decanamide], the inhibition at 0.1 µM is ≥ 60% and the inhibition at 1 µM is ≥ 60%.

As for `CCOc1cc([C@@H](CS(C)(=O)=O)N2C(=O)c3cccc(NC(=O)CCCCN4CCN(CC(=O)N[C@H](C(=O)N5C[C@H](O)C[C@H]5C(=O)NCc5ccc(-c6scnc6C)cc5)C(C)(C)C)CC4)c3C2=O)ccc1OC` [Compound A63, (2S,4R)-1-[(2S)-2-(2-{4-[4-({2-[(1S)-1-(3-Ethoxy-4-methoxyphenyl)-2-methanesulfonylethyl]-1,3-dioxo-2,3-dihydro-1H-isoindol-4-yl}carbamoyl)butyl]piperazin-1-yl}acet-amido)-3,3-dimethylbutanoyl]-4-hydroxy-N-{[4-(4-methyl-1,3-thiazol-5-yl)phenyl]methyl}-pyrrolidine-2-carboxamide], the inhibition at 0.1 µM is ≥ 60% and the inhibition at 1 µM is ≥ 60%.

Consider `CCOc1cc([C@@H](CS(C)(=O)=O)N2C(=O)c3cccc(CCCCCCCCCCN4CCC(c5cc6c(cc5F)C(=O)N(C5CCC(=O)NC5=O)C6)CC4)c3C2=O)ccc1OC` (stereo partly drawn) [Compound A27, 4-(10-{4-[2-(2,6-Dioxopiperidin-3-yl)-6-fluoro-1-oxo-2,3-dihydro-1H-isoindol-5-yl]piperidin-1-yl}decyl)-2-[(1S)-1-(3-ethoxy-4-methoxyphenyl)-2-methanesulfonylethyl]-2,3-dihydro-1H-isoindole-1,3-dione], for which the inhibition at 0.1 µM is ≥ 60% and the inhibition at 1 µM was ≥ 60%.

For the compound `CCOc1cc([C@@H](CS(C)(=O)=O)N2C(=O)c3cc(C#CCCCCCN4CCC(c5cc(F)cc6c5CN(C5CCC(=O)NC5=O)C6=O)CC4)cc(NC(C)=O)c3C2=O)ccc1OC` (stereo partly drawn) [Compound A2, N-(6-(7-(4-(2-(2,6-Dioxopiperidin-3-yl)-6-fluoro-1-oxoisoindolin-4-yl)-piperidin-1-yl)hept-1-yn-1-yl)-2-((S)-1-(3-ethoxy-4-methoxyphenyl)-2-(methylsulfonyl)ethyl)-1,3-dioxoisoindolin-4-yl)acetamide], the inhibition at 0.1 µM is ≥ 60%.

For the compound `CCOc1cc([C@@H](CS(C)(=O)=O)N2C(=O)c3cccc(NC(=O)CCCc4cn(CCNCc5ccc(OCc6scc7c6CN(C6CCC(=O)NC6=O)C7=O)cc5)nn4)c3C2=O)ccc1OC` (stereo partly drawn) [Compound A48, 4-[1-(2-{[(4-{[5-(2,6-Dioxopiperidin-3-yl)-4-oxo-4H,5H,6H-thieno[3,4-c]pyrrol-1-yl]methoxy}phenyl)methyl]amino}ethyl)-1H-1,2,3-triazol-4-yl]-N-{2-[(1S)-1-(3-ethoxy-4-methoxyphenyl)-2-methanesulfonylethyl]-1,3-dioxo-2,3-dihydro-1H-isoindol-4-yl}butanamide], the inhibition at 0.1 µM was 40 to 60% and the inhibition at 1 µM is ≥ 60%.

In the case of `CCOc1cc([C@@H](CS(C)(=O)=O)N2C(=O)c3cccc(NCC(=O)N4CCN(CCCCC(=O)N[C@H](C(=O)N5C[C@H](O)C[C@H]5C(=O)NCc5ccc(-c6scnc6C)cc5)C(C)(C)C)CC4)c3C2=O)ccc1OC` [Compound A66, (2S,4R)-1-[(2S)-2-(5-{4-[2-({2-[(1S)-1-(3-Ethoxy-4-methoxyphenyl)-2-methanesulfonylethyl]-1,3-dioxo-2,3-dihydro-1H-isoindol-4-yl}amino)acetyl]piperazin-1-yl}pentan-amido)-3,3-dimethylbutanoyl]-4-hydroxy-N-{[4-(4-methyl-1,3-thiazol-5-yl)phenyl]methyl}-pyrrolidine-2-carboxamide], the inhibition at 0.1 µM is 40 to 60% and the inhibition at 1 µM is ≥ 60%.

Regarding `CCOc1cc([C@@H](CS(C)(=O)=O)N2C(=O)c3cccc(NC(=O)CCCCCCCN4CCN(CC(=O)Nc5ccc(C6CCC(=O)NC6=O)cc5)CC4)c3C2=O)ccc1OC` (stereo partly drawn) [Compound A84, 8-[4-({[4-(2,6-Dioxopiperidin-3-yl)phenyl]carbamoyl}methyl)piperazin-1-yl]-N-{2-[(1S)-1-(3-ethoxy-4-methoxyphenyl)-2-methanesulfonylethyl]-1,3-dioxo-2,3-dihydro-1H-isoindol-4-yl}octanamide], the inhibition at 0.1 µM was ≥ 60% and the inhibition at 1 µM is ≥ 60%.

`CCOc1cc([C@@H](CS(C)(=O)=O)N2C(=O)c3cccc(NC(=O)CCCCCN4CCN(CC(=O)Nc5ccc6c(C7CCC(=O)NC7=O)nn(C)c6c5)CC4)c3C2=O)ccc1OC` (stereo partly drawn) [Compound A78, 6-[4-({[3-(2,6-Dioxopiperidin-3-yl)-1-methyl-1H-indazol-6-yl]carbamoyl}-methyl)piperazin-1-yl]-N-{2-[(1S)-1-(3-ethoxy-4-methoxyphenyl)-2-methanesulfonylethyl]-1,3-dioxo-2,3-dihydro-1H-isoindol-4-yl}hexanamide]: the inhibition at 0.1 µM was ≥ 60% and the inhibition at 1 µM is ≥ 60%.

For `Cc1ncsc1-c1ccc(CNC(=O)[C@@H]2C[C@@H](O)CN2C(=O)[C@@H](NC(=O)CCCCCCCCOc2cc(C(=O)Nc3c(Cl)cncc3Cl)ccc2OCC2CC2)C(C)(C)C)cc1` [Compound B22, (2S,4R)-1-((S)-2-(9-(2-(Cyclopropylmethoxy)-5-((3,5-dichloropyridin-4-yl)carbamoyl)phenoxy)nonanamido)-3,3-dimethylbutanoyl)-4-hydroxy-N-(4-(4-methylthiazol-5-yl)benzyl)pyrrolidine-2-carboxamide], the inhibition at 0.1 µM is < 20% and the inhibition at 1 µM is 20 to 40%.

In the case of `CCOc1cc([C@@H](CS(C)(=O)=O)N2C(=O)c3cccc(NC(=O)CN4CCN(CCCCN5CCC(c6cc7c(cc6F)C(=O)N(C6CCC(=O)NC6=O)C7)CC5)CC4)c3C2=O)ccc1OC` (stereo partly drawn) [Compound A28, 2-[4-(4-{4-[2-(2,6-Dioxopiperidin-3-yl)-6-fluoro-1-oxo-2,3-dihydro-1H-isoindol-5-yl]piperidin-1-yl}butyl)piperazin-1-yl]-N-{2-[(1S)-1-(3-ethoxy-4-methoxyphenyl)-2-methanesulfonylethyl]-1,3-dioxo-2,3-dihydro-1H-isoindol-4-yl}acetamide], the inhibition at 0.1 µM is 40 to 60% and the inhibition at 1 µM was ≥ 60%.

In the case of `O=C1CCC(N2Cc3c(cc(F)cc3C3CCN(CCCCCCCCCOc4cc(C(=O)Nc5c(Cl)cncc5Cl)ccc4OC(F)F)CC3)C2=O)C(=O)N1` (stereo not shown) [Compound B4, N-(3,5-Dichloropyridin-4-yl)-4-(difluoromethoxy)-3-((9-(4-(2-(2,6-dioxo-piperidin-3-yl)-6-fluoro-1-oxoisoindolin-4-yl)piperidin-1-yl)nonyl)oxy)benzamide], the inhibition at 0.1 µM is ≥ 60%.

As to `CCOc1cc([C@@H](CS(C)(=O)=O)N2C(=O)c3cc(CCCCCCCCCCCCNc4cccc(NC5CCC(=O)NC5=O)c4)cc(N)c3C2=O)ccc1OC` (stereo partly drawn) [Compound A90, 4-Amino-6-[12-({3-[(2,6-dioxopiperidin-3-yl)amino]phenyl}amino)dodecyl]-2-[(1S)-1-(3-ethoxy-4-methoxyphenyl)-2-methanesulfonylethyl]-2,3-dihydro-1H-isoindole-1,3-dione], the inhibition at 0.1 µM was ≥ 60% and the inhibition at 1 µM was ≥ 60%.

With `CCOc1cc([C@@H](CS(C)(=O)=O)N2C(=O)c3cccc(NC(=O)CCCCCCCCCCN(C)Cc4ccc(OCc5scc6c5CN(C5CCC(=O)NC5=O)C6=O)cc4)c3C2=O)ccc1OC` (stereo partly drawn) [Compound A46, 11-{[(4-{[5-(2,6-Dioxopiperidin-3-yl)-4-oxo-4H,5H,6H-thieno[3,4-c]pyrrol-1-yl]methoxy}phenyl)methyl](methyl)amino}-N-{2-[(1S)-1-(3-ethoxy-4-methoxyphenyl)-2-methanesulfonylethyl]-1,3-dioxo-2,3-dihydro-1H-isoindol-4-yl}undecanamide], the inhibition at 0.1 µM is ≥ 60% and the inhibition at 1 µM was ≥ 60%.
